Measurements as given in patent US6569865B2, “Spiro 1-azabicyclo[2.2.2]octane-3,2′(3′h)-furo[2,3-b]pyridine” (priority 2001, dated 2003).

Tests used:
α7 nAChR = α7 nAChR (Rattus norvegicus, UniProt Q05941); assay: Test A: 125I-α-bungarotoxin binding to rat hippocampal membranes (affinity at α7 nAChR subtype)
Experimental: Test A—Assay for Affinity at α7 nAChR Subtype
125I-α-Bungarotoxin (BTX) binding to rat hippocampal membranes. Rat hippocampi were homogenized in 20 volumes of cold homogenization buffer (HB: concentrations of constituents (mM): tris(hydroxymethyl)aminomethane 50; MgCl2 1; NaCl 120; KCl 5: pH 7.4). The homogenate was centrifuged for 5 minutes at 1000 g, the supernatant was saved and the pellet re-extracted. The pooled supernatants were centrifuged for 20 minutes at 12000 g, washed, and resuspended in HB. Membranes (30-80 μg) were incubated with 5 nM [^125I]α-BTX, 1 mg/mL BSA (bovine serum albumin), test drug, and either 2 mM CaCl2 or 0.5 mM EGTA [ethylene glycol-bis(β-aminoethylether)] for 2 hours at 21° C., and then filtered and washed 4 times over Whatman glass fibre filters (thickness C) using a Brandel cell harvester. […]
IC50 values and pseudo Hill coefficients (nH) were calculated using the non-linear curve-fitting program ALLFIT (DeLean A, Munson P J and Rodbard D (1977) Am. J. Physiol., 235:E97-E102). […]
where a value of n=1 was used whenever nH<1.5 and a value of n=2 was used when nH≧1.5. […] Ki values were determined using 6 or more drug concentrations. […]

α4 nAChR = α4 nAChR (Rattus norvegicus, UniProt P09483+P12390); format: binding
α4 nAChR, sequence (P09483 31-630): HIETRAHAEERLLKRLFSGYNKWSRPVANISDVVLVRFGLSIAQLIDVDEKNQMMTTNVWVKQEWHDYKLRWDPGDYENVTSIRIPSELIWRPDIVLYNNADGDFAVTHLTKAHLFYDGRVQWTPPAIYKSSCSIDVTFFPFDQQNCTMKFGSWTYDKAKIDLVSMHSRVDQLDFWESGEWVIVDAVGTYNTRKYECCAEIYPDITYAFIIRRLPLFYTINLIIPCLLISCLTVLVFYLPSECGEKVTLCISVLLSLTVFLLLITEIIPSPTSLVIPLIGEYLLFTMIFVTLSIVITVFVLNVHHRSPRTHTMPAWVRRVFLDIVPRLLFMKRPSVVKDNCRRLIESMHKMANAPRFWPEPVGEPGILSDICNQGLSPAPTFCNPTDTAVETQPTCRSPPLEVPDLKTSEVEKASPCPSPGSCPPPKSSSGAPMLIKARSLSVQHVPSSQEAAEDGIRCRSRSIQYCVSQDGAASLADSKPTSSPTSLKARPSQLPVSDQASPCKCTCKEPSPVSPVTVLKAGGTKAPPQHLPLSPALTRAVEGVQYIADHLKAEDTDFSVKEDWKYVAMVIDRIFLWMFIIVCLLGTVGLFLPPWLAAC
α4 nAChR, sequence (P12390 25-500): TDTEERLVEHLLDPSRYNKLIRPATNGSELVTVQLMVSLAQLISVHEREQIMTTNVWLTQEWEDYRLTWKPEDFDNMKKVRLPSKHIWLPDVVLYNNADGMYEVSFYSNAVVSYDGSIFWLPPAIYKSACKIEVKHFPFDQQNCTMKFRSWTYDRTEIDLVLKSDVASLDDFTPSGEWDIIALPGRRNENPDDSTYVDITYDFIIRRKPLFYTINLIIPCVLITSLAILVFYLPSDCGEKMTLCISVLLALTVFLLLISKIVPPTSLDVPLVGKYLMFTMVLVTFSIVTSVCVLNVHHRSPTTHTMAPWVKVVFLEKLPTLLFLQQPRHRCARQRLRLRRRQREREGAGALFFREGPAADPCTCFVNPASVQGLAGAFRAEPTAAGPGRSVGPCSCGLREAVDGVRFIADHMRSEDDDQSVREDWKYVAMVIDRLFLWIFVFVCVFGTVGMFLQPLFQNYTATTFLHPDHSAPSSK
Experimental: Binding Data Analysis for Tests A and B
Ki values were determined using 6 or more drug concentrations.

α7 nAChR, sequence (Q05941 23-502): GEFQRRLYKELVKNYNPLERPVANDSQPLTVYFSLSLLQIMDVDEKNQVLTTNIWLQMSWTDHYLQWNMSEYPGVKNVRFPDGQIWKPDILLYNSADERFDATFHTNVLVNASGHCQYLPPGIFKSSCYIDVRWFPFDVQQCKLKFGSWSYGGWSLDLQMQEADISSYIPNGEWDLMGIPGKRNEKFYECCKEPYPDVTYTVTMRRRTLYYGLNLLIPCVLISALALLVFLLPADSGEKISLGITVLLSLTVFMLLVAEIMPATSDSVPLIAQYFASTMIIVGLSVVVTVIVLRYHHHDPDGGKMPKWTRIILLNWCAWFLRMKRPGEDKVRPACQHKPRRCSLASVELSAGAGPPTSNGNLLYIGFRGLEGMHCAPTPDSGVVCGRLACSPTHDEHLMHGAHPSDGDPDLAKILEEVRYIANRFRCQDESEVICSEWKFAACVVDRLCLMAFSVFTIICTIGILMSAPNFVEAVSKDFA

Compound	Ki (α7 nAChR; 125I-α-BTX displacement, rat hippocampal membranes) [nM]	nAChR Binding Selectivity (Ratio α4 Ki/α7 Ki) (α4 nAChR)	Kd (α7 nAChR; read-out: KD of radioligand from saturation curves (one site model)) [nM]
c1cc(-c2cnc3c(c2)C[C@@]2(CN4CCC2CC4)O3)co1 [Compound 3, (2′R)-5′-(3-furanyl)spiro[1-azabicyclo[2.2.2]octane-3,2′(3′H)-furo[2,3-b]pyridine]]	0.033	88000	
125I-α-Bungarotoxin [Compound 125I-α-BTX, reference compound]			1.67
